Source: patent US20100298141A1, “SUBSTITUTED PYRIDINE N-OXIDE HERBICIDES” (E. I. DU PONT DE NEMOURS AND COMPANY, priority 2007, published 2010)

Test system: Russian thistle
Assay: Test C pre-/postemergence test
Assay type: in vivo, Salsola kali
Conditions: for Plant response rating, Russian Thistle: scale 0 to 100 (0 no effect, 100 complete control)
From the text: Seeds of plant species selected from blackgrass (Alopecurus myosuroides), downy brome (Bromus tectorum), green foxtail (Setaria viridis), Italian ryegrass (Lolium multiflorum), wheat (Triticum aestivum), wild oat (Avena fatua), catchweed bedstraw (Galium aparine), Russian thistle (Salsola kali), […] (Cynodon dactylon), Surinam grass (Brachiaria decumbens), cocklebur (Xanthium strumarium), corn (Zea mays), crabgrass (Digitaria sanguinalis), woolly cupgrass (Eriochloa villosa), giant foxtail (Setaria faberii), Goosegrass (Eleusin indica), johnsongrass (Sorghum halepense), kochia (Kochia scoparia), lambsquarters (Chenopodium album), morningglory (Ipomoea coccinea), eastern black nightshade (Solanum ptycanthum), yellow nutsedge (Cyperus esculentus), pigweed (Amaranthus retroflexus), common ragweed (Ambrosia elation), soybean (Glycine max), common (oilseed) sunflower (Helianthus annuus), and velvetleaf (Abutilon theophrasti) were planted and treated preemergence with test chemicals formulated in a non-phytotoxic solvent mixture which included a surfactant. At the same time, plants selected from these crop and weed species and also winter barley (Hordeum vulgare), canarygrass (Phalaris minor), and chickweed (Stellaria media) were treated with postemergence applications of some of the test chemicals formulated in the same manner. Plants ranged in height from 2 to 18 cm (1- to 4-leaf stage) for postemergence treatments. […] At time of treatment, test pots were flooded to 3 cm above the soil surface, treated by application of test compounds directly to the paddy water, and then maintained at that water depth for the duration of the test. […] A dash (-) response means no test result.

[1] = 62 g ai/ha, Preemergence, scale 0 to 100
[2] = 125 g ai/ha, preemergence, scale 0 (no effect) to 100 (complete control)
[3] = preemergence, 250 g ai/ha, scale 0 (no effect) to 100 (complete control)

Row | Compound | Russian Thistle plant response rating [1] | Russian Thistle plant response rating [2] | Plant response rating, Russian Thistle (Preemergence, 31 g ai/ha) | Russian Thistle plant response rating [3] | Russian Thistle plant response rating (31 g ai/ha, Preemergence, scale 0 to 100) | Russian Thistle plant response rating (62 g ai/ha, preemergence, scale 0 (no effect) to 100 (complete control)) | Plant response rating (0 to 100), Russian Thistle (Preemergence, 250 g ai/ha) | Russian Thistle plant response rating (preemergence, 125 g ai/ha, scale 0 (no effect) to 100 (complete control))
1 | CCc1cc[n+]([O-])c(S(=O)(=O)Cc2c(C(F)(F)F)nn(C)c2OC(F)F)c1 [Compound 102] | 100 | 100 | 100 | 100 |  |  |  | 
2 | Cn1nc(C(F)(F)C(F)(F)F)c(C[S+]([O-])c2ccc(Cl)c[n+]2[O-])c1OCC(F)(F)F (stereo not drawn) [Compound 92] | 100 | 100 | 100 | 100 |  |  |  | 
3 | Cn1nc(C(F)(F)F)c(C(Cl)S(=O)(=O)c2cccc[n+]2[O-])c1OC(F)F (stereo not drawn) [Compound 51] | 100 | 100 | 40 | 100 |  |  |  | 
4 | Cn1nc(C(F)(F)F)c(C[S+]([O-])c2cc(Br)cc[n+]2[O-])c1Cl (racemic) [Compound 35] | 100 | 100 | 100 | 100 |  |  |  | 
5 | Cc1cc[n+]([O-])c(S(=O)(=O)C(C)c2c(C(F)(F)F)nn(C)c2Cl)c1 (racemic) [Compound 14] |  |  |  |  | 80 | 100 | 100 | 100
6 | Cn1nc(C(F)(F)F)c(CS(=O)(=O)c2cc(C(C)(C)C)cc[n+]2[O-])c1OC(F)F [Compound 25] | 100 |  | 100 |  |  |  |  | 
7 | Cn1nc(C(F)(F)F)c(C[S+]([O-])c2cc(C(C)(C)C)cc[n+]2[O-])c1OC(F)F (racemic) [Compound 24] | 0 |  |  |  |  |  |  | 
8 | CC(c1c(C(F)(F)F)nn(C)c1OC(F)F)S(=O)(=O)c1cc(C(C)(C)C)cc[n+]1[O-] (racemic) [Compound 26] | 50 |  | 0 |  |  |  |  | 
9 | Cn1nc(C(F)(F)F)c(C[S+]([O-])c2cccc[n+]2[O-])c1OCC(F)F (stereo not drawn) [Compound 75] | 100 | 100 | 100 | 100 |  |  |  | 
10 | Cn1nc(C(F)(F)F)c(CS(=O)(=O)c2ccc(Cl)c[n+]2[O-])c1Cl [Compound 18] | 30 |  | 0 |  |  |  |  | 
11 | Cn1nc(C(F)(F)F)c(C[S+]([O-])c2cc(C(F)(F)F)cc[n+]2[O-])c1Cl (racemic) [Compound 34] | 100 |  | 70 |  |  |  |  | 
